From US20250382574A1, “CELL CULTURE METHOD” (Takeda Pharmaceutical Company Limited, priority 2022, published 2025) come the findings set out here.

Assay [1] deals with iPS cell-derived CAR-T cells. Briefly: Proliferation test, ITS-X and taurine added to 0.3 mM boric acid-containing serum-free medium. It counts as cell-based. Particulars: for viability (%): serum-free expansion medium, boric acid 0.3 mM. On the procedure: A total of five types of expansion culture media were prepared: Advanced DMEM/F12 medium (Thermo Fisher) containing additives shown in the “expansion culture medium” column in Table 4, and said medium further added with either 0.3 mM boric acid (Sigma-Aldrich), 0.3 mM boric acid and 1×ITS-X ((Insulin-Transferrin-Selenium-Ethanolamine Supplements) Gibco), 0.3 mM boric acid and 1×ITS-X and 1 mM taurine (Sigma-Aldrich), or 0.3 mM boric acid and 1×ITS-X and 3 mM taurine (medium supplemented with only additives in Table 4, medium supplemented with additives in Table 4+0.3 mM boric acid, medium supplemented with additives in Table 4+0.3 mM boric acid+ITS-X, medium supplemented with additives in Table 4+0.3 mM boric acid+ITS-X+1 mM taurine, medium supplemented with additives in Table 4+0.3 mM boric acid+ITS-X+3 mM taurine). After 3 days of activation culture, the cells were collected from the T225 flask and suspended in each of the five types of expansion culture media at 40,000 cells/mL, and cultured under 5% CO2/37° C. using G-Rex (registered trademark) 10M (Wilson Wolf). Then, on the fifth day of culture, some of the cells were recovered from G-Rex (registered trademark) 10M and the cells were counted, and the medium was replaced with the respective medium. On the sixth day of culture, some of the cells were recovered from G-Rex (registered trademark) 10M and the cells were counted. On the 7th and 10th days of culture, some of the cells were recovered from the plate, counted, and seeded onto a G-Rex (registered trademark) 24-well plate (Wilson Wolf) containing each medium at 50,000 cells/mL. On the 12th and 14th days of culture, some of the cells were similarly collected from the G-Rex (registered trademark) 24-well plate, counted, and the medium was replaced with each medium.
In the expansion culture of item 5 in Example 4, the cell number and viability of iPS cell-derived CAR-T cells were measured on days 3, 5, 6, 7, 10, 12, and 14 of culture.

The subject of assay [2] is iPS cell-derived CAR-T cells. Particulars: 0.3 mM boric acid added to 1% FBS-containing medium; FIG. 1. The text has this: Then, on the fifth day of culture, some of the cells were recovered from G-Rex (registered trademark) 10M and the cells were counted, and the medium was replaced with the respective medium. On the sixth day of culture, some of the cells were recovered from G-Rex (registered trademark) 10M and the cells were counted. […] On the 12th and 14th days of culture, some of the cells were similarly collected from the G-Rex (registered trademark) 24-well plate, counted, and the medium was replaced with each medium.

The test system of assay [3] is iPS cell-derived CAR-T cells. Particulars: boric acid concentration range of 0.2 mM to 0.9 mM, serum-free medium; FIG. 3.
Procedure: After 3 days of activation culture, the cells were collected from the T225 flask and suspended in each of the five types of expansion culture media at 50,000 cells/mL, and cultured under 5% CO2/37° C. using G-Rex (registered trademark) 24-well plate (Wilson Wolf). Then, on the fifth day of culture, some of the cells were recovered from G-Rex (registered trademark) 24-well plate and the cells were counted, and the medium was replaced with the respective medium. On the 7th day of culture, the cells were counted by a similar method, seeded in a fresh G-Rex (registered trademark) 24-well plate at 50,000 cells/mL, and cultured in each medium. On the 10th and 12th days of culture, some of the cells were similarly collected from the plate, counted, and the medium was replaced with each medium.
In assay [4] the test system is iPS cell-derived CAR-T cells. Particulars: 0.3 mM boric acid added to serum-free medium; FIG. 2.
Procedure: After 3 days of activation culture, the cells were collected from the T225 flask and suspended in each of the two types of expansion culture media at 40,000 cells/mL, and cultured under 5% CO2/37° C. using G-Rex (registered trademark) 10M (Wilson Wolf). Then, on the fifth day of culture, some of the cells were collected from G-Rex (registered trademark) 10M and counted, and the medium was replaced with each medium. On the 7th and 10th days of culture, the cells were counted by a similar method, seeded in a G-Rex (registered trademark) 24-well plate at 50, 000 cells/mL, and cultured in each medium. On the 12th and 14th days of culture, some of the cells were similarly collected from the plate, counted, and the medium was replaced with each medium.
The test system of assay [5] is human-derived primary T cell-derived CAR-T cells. The note with it: boric acid 0.3 mM added to serum-free medium (BM220720); FIG. 5.

Read-outs that look alike come from different tables or passages of the source.

Take `OB(O)O` [Boric acid, boric acid]: the “viability (%)” value was found to be 88.7% in assay [1] (Day 5); 88.6% in assay [1] (Day 6); 87.5% in assay [1] (Day 7); 90.3% in assay [1] (Day 10); 90.4% in assay [1] (Day 12); 88.3% in assay [1] (Day 14). The “proliferation (cell proliferation fold from day 0 of expansion culture)” value in assay [2], in assay [4] and in assay [5] was “promoted” in each case. In assay [3], the cell viability result is reported as “not influenced”.

In the case of `NCCS(=O)(=O)O` [Taurine, taurine], the “maximum difference (%) in viability between (3): without addition of Taurine and (4) or (5): with addition of Taurine” value was 2.9% in assay [1] (Day 5); 1.6% in assay [1] (Day 6); 2.5% in assay [1] (Day 7); 3.7% in assay [1] (Day 10); 1.9% in assay [1] (Day 12); 1.3% in assay [1] (Day 14).
